Tested on: CH strain houseflies
Assay: spray application of pyrethrum, percent knockdown as a function of time
Type: in vivo
Settings: pyrethrum 100 + synergist 100 mg/cc
Procedure: The average percent knockdown of CH strain flies, as a function of time, resulting from spray application of pyrethrum, alone and with synergists, are given in Table XXXXIII. Duplicate tests were performed using 50 CH strain houseflies per test. Test solutions of 100 mg and 200mg of pyrethrum per cc of acetone, 200 mg of synergist per cc of acetone, and a mixture of 100 mg of pyrethrum and 100 mg of synergist per cc of acetone were prepared. The fifty CH strain houseflies were put in a 40 liter spray chamber and 1 cc of the test solution was sprayed into the test chamber with a spray pistol. The synergists alone at 200 mg/cc caused no knockdown.

| Structure (SMILES) | average percent knockdown, pyrethrum with synergist (5 minutes) [%] | average percent knockdown, pyrethrum with synergist (10 minutes) [%] | average percent knockdown, pyrethrum with synergist (15 minutes) [%] | average percent knockdown, pyrethrum with synergist (20 minutes) [%] | average percent knockdown, pyrethrum with synergist (25 minutes) [%] | average percent knockdown, pyrethrum with synergist (30 minutes) [%] | average percent knockdown, pyrethrum with synergist (40 minutes) [%] | average percent knockdown, pyrethrum with synergist (50 minutes) [%] | average percent knockdown, pyrethrum with synergist (60 minutes) [%] |
| --- | --- | --- | --- | --- | --- | --- | --- | --- | --- |
| C#CCON=Cc1cccc2ccccc12 [I-I] | 4 | 7 | 19 | 29 | 40 | 49 | 57 | 86 | 92 |
| C#CCOCc1c(Cl)ccc(Cl)c1Cl [II-E] | 5 | 9 | 17 | 44 | 55 | 59 | 77 | 93 | 95 |
| C#CCON=C(C)c1ccc(Cl)cc1 [I-D] | 6 | 15 | 26 | 39 | 52 | 60 | 86 | 87 | 88 |
| C#CCON=Cc1ccc(Cl)cc1Cl [I-G] | 7 | 12 | 31 | 36 | 59 | 66 | 89 | 93 | 94 |

Reference: patent US3954793A, “1-(2-Propynyl)-1 H-indazole compounds” (priority 1973, dated 1976)
